6 compounds from patent US5849777A, “Cell differentiation induction with mevalonate and mevalonolactone derivatives” (University of New Mexico, priority 1995, dated 1998) can be followed below.

For assay [1], the target named is T1, rat liver HMG-COA reductase (Rattus norvegicus, UniProt P51639).
T1 construct: rat liver HMG-COA reductase activity; from tissue; host or cells: rat liver
T1 sequence (P51639 1-887): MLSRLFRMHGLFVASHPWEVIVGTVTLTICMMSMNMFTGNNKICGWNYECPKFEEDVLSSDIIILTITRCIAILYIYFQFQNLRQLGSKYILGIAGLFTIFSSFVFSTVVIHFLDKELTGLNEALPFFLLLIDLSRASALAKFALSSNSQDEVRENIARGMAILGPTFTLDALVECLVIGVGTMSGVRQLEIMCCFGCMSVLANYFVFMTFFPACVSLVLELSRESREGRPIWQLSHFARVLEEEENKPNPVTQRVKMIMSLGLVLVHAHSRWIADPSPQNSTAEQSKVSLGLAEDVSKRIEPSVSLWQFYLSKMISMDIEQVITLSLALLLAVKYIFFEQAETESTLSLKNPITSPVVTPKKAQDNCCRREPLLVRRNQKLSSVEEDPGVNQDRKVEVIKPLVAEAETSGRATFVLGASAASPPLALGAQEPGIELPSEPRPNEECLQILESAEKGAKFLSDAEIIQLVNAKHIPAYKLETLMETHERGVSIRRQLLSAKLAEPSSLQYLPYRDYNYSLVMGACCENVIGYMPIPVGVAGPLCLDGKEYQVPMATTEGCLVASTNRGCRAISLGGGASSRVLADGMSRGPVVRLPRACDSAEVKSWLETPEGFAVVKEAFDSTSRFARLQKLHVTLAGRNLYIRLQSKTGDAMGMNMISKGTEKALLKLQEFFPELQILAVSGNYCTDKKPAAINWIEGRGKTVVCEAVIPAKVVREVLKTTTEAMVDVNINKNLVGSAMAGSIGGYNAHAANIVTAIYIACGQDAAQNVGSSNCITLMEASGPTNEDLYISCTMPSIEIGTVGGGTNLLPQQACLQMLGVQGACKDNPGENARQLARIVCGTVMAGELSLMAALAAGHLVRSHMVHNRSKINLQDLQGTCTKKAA
Description: inhibition of rat liver HMG-CoA reductase activity. In kind it is biochemical. From the text: While a number of the compounds of the Formula I are known HMG-CoA reductase inhibitors, there is no apparent correlation between HMG-CoA reductase inhibitory activity and promotion of differentiation activity according to the invention. […] Accordingly, useful guidelines for selecting compounds having optimal differentiation-promoting activity according to the invention broadly comprise selecting compounds of the Formula I having the specified stereochemical configuration and an in vitro immunological activity as set forth in the in vitro assay of Example II, of at least about 3-fold.

In assay [2] the test system is Human peripheral blood leukocytes. Description: IgG production by human peripheral blood leukocytes (HPBL) in vitro. In kind it is cell-based. Particulars: for Inhibitory Concentration (concentration inhibiting nonspecific IgG production below normal production): HPBL, additional 90 h culture; for immune enhancement (in words): Examples II and Table I. On the procedure:
Human peripheral blood leukocytes were cultured in a standard tissue culture medium. Aliquots of these cultured cells (1,000,000 cells/ml medium) were cultured for 6 hours, and the specified amount of Formula II compound was added; the cells were then cultured for an additional 90 hours. Sheep red blood cells (SRBC) conditioned with class-specific (IgG) goat anti-human antiserum (1:400) for 2 hours; then guinea pig complement (2%) for 2 hours were conjugated to Protein A as described in detail in Radioimaging and Radioimmunotherapy, Eds. S. W. Burchiel and B. A. Rhodes, Elsevier Science Publishing; New York, 1983, pp. 125-127, incorporated herein by reference.
1. Concentration inhibiting nonspecific IgG production below normal production.

Assay [3] deals with CG (canine glioma) cells. In words: tumor-specific antibody production in vivo (anti-CG IgG titer). On the set-up: species or system dog. The text has this:
Titer of CG-specific antibody was compared to control [no administration of compound IIa' and no implantation of CG (canine glioma) cells]. […] This increase in titer continued with time until tumor regression was noted by independent measurement (NMR evaluation, below).
The results are particularly striking as the experimental tumor (brain glioma) is generally considered to enjoy a privileged position beyond the blood/brain barrier, substantially beyond the reach of the humoral immune system. Experimental protocols are described in detail below (FIGS. 7-9, Example VII).

For assay [4], the system named is CG tumor. In words: chromium-release cell-mediated lympholysis (CML) vs CG tumor. In kind it is in vivo, dog. From the text:
Cellular immune response reflected the results reported in III, 1 above. […] This also is in the absence of CG antigen exposure. […] Thus both cellular and humoral immunity appear to be modulatable in the absence of antigen by the compounds of the instant invention.

Assay [5] relates to Canine glioma cells. In words: inhibition of thymidine incorporation (I50%). In kind it is cell-based. Particulars: Canis lupus familiaris, Glioma cell. The protocol: (§1) Cytotoxicity was determined as a function of simple survival (T50 %), adherence (ADH50 %) and thymidine incorporation (I50%) of the cells.
Estimates of the I50% of the various drugs tested on thymidine incorporation of canine glioma cells in culture.

In assay [6] the test system is Canine glioma cells. In words: inhibition of adherence (ADH50%). In kind it is cell-based. Particulars: Canis lupus familiaris, Glioma cell. On the procedure: as §1
(§2) Estimates of the 50% inhibitory concentrations of the various drugs tested on simple survival (T50%) and adherence (ADH50%) for canine glioma cells.

The test system of assay [7] is Canine glioma cells. In words: cytotoxicity as simple survival (T50%). In kind it is cell-based. Particulars: Canis lupus familiaris, Glioma cell, read-out: T 50%. On the procedure:
as §1, §2

For assay [8], the system named is human colon carcinoma cell line (LS-174). Description: effect on tumor cell generation time, human colon carcinoma. In kind it is cell-based. On the procedure: The procedure of Example VA, above, was repeated except a human colon carcinoma cell line (LS-174) was used instead of the canine glioma cell line.
Mean of triplicate determinations. LS-174 cells (human colon carcinoma) were grown under conditions to promote exponential growth characteristics; 2×10^5 cells in a T-25 flask. The cells were harvested every 72 hours after the controls had reached approximately 85% confluency. The drug was added at the initiation of culture in DMSO, the control cultures had just DMSO. The drug concentration was adjusted with DMSO so that the final concentration of DMSO was always 0.5%.

Assay [9] has as its system Canine glioma cells. In words: effect on tumor cell generation time, canine glioma. In kind it is cell-based. Particulars: 10 nM. The protocol: The cells were harvested every 72 hours after the controls had reached 85% confluency. Generation time (Tg) was determined as the number of hours required for the cell population to double.
Mean of triplicate determinations. Canine glioma cells were grown under conditions to promote exponential growth characteristics; 2×10^5cells in a T-25 flask. The cells were harvested every 72 hours after the controls had reached approximately 85% confluency. The drug was added at the initiation of culture in DMSO, the control cultures had just DMSO. The drug concentration was adjusted with DMSO so that the final concentration of DMSO was always 0.5%.

[10] abbreviates: read-out: IC50 (concentration for 50% inhibition of rat liver HMG-COA reductase activity), Table I.

Read-outs that look alike come from different tables or passages of the source.

For the compound `CC(C)c1nc(-c2ccccc2)n(-c2ccc(F)cc2)c1/C=C/[C@@H](O)C[C@H](O)CC(=O)O` [IIb], the IC50 in assay [1] (setting [10]) was found to be 1350 nM. Also, the “Inhibitory Concentration (concentration inhibiting nonspecific IgG production below normal production)” value in assay [2] is on record as “none found”.
`CC(C)c1nc(-c2ccccc2)n(-c2ccc(F)cc2)c1/C=C/[C@H](O)C[C@H](O)CC(=O)O` [IIa] showed an IC50 in [1] (Table I) of 3150 nM. Further, the CG-specific antibody result in [3] (at tumor regression, within a few days) was “reverted to baseline control levels”. Besides, the “CG-specific antibody (IgG) production” value in [3] (following implantation of the CG tumor cells) is reported as “increased significantly”. The “titers of antibody over the control antibody titer” value in [3] (in the absence of antigen) was “titers of antibody increased over the control antibody titer significantly”. Also, the CML reactivity entry in [4] (after 5 weeks, tumor totally regressed) was “returned to baseline”; in assay [4] (after a few days of exposure to the CG tumor implant) it was “large increase in the CML reactivity”. In assay [4] (after 14 days of administration, I.P., M, W, F), the “CG-specific CML” value is reported as “only baseline levels of CG-specific CML were present”. The CML result in assay [4] (after an additional 2 months, absence of CG antigen exposure) is on record as “significant increase in CML”. In addition, the “Inhibitory Concentration (concentration inhibiting nonspecific IgG production below normal production)” value in assay [2] is “none found”.
Regarding `CC[C@H](C)C(=O)O[C@H]1C[C@@H](C)C=C2C=C[C@H](C)[C@H](CC[C@@H]3C[C@@H](O)CC(=O)O3)[C@H]21` [lovastatin, reference compound], the “immune enhancement (in words)” value in assay [2] was “no immune enhancement”.
Regarding `CC(C)c1nc(-c2ccccc2)n(-c2ccc(F)cc2)c1/C=C/[C@@H](O)C[C@@H](O)CC(=O)O` [IId, reference compound], in assay [2] (Homo sapiens, Leukocyte, 90 h, 100 nM, read-out: Stimulation of IgG Production), the activation at 0.1 µM worked out at 320%.
As for `CC[C@H](C)C(=O)O[C@H]1CCC=C2C=C[C@H](C)[C@H](CC[C@@H]3C[C@@H](O)CC(=O)O3)[C@H]21` [compactin, reference compound], the IC50 in [5] (24 h exposure, read-out: I50%) is 100 nM; in assay [5] (48 h exposure, read-out: I50%), 75 nM; in assay [5] (72 h exposure, read-out: I50%), 30 nM; in assay [5] (96 h exposure, read-out: I50%), 50 nM; in [6] (24 h exposure), 50 nM; in assay [6] (72 h exposure), 75 nM. Besides, the IC50 worked out at 75 nM in assay [6] (96 h exposure), 500 nM in [7] (24 h exposure), 200 nM in assay [7] (72 h exposure) and 350 nM in assay [7] (96 h exposure). The “immune enhancement (in words)” value in [2] is listed as “no immune enhancement”.
Take `CC(C)c1nc(-c2ccccc2)n(-c2ccc(F)cc2)c1/C=C/[C@H](O)C[C@@H](O)CC(=O)O` (relative stereo) [Compound IIe']: the IC50 in assay [5] (24 h exposure, read-out: I50%) was 50 nM; in assay [5] (48 h exposure, read-out: I50%), 75 nM; in assay [5] (72 h exposure, read-out: I50%), 80 nM; in assay [5] (96 h exposure, read-out: I50%), 50 nM; in assay [5] (Table V, all exposure times, read-out: I50% (thymidine incorporation into DNA)), 50 to 80 nM; in [6] (24 h exposure) it was 75 nM. Besides, the IC50 in assay [6] (72 h exposure) is 70 nM; in assay [6] (96 h exposure) it was 75 nM; in assay [1] (Example IV, read-out: IC50 (HMG-CoA reductase)), 3 nM; in assay [1] (setting [10]), 3 nM; in assay [7] (24 h exposure), 750 nM; in assay [7] (72 h exposure) it was 800 nM. In addition, the IC50 in [7] (96 h exposure) was found to be 900 nM. The “% CHANGE (Tg)” value worked out at 400% in [8] (10 nM, 72 × 2 h); 416% in assay [8] (10 nM, 72 × 3 h); 414% in [8] (10 nM, 72 × 4 h); 320% in assay [8] (10 nM, 72 h); 129% in assay [9] (72 × 2 h); 180% in [9] (72 × 3 h). Besides, the “% CHANGE (Tg)” value in [9] (72 × 4 h) turned out to be 155%; in assay [9] (72 h), 136%. For the same compound, the Tg is listed as 106.2 h in assay [8] (10 nM, 72 × 2 h); 110.3 h in assay [8] (10 nM, 72 × 3 h (three passages), control 26.5 h); 109.6 h in assay [8] (10 nM, 72 × 4 h); 84.9 h in assay [8] (10 nM, 72 h); 24.0 h in [9] (72 × 2 h); 33.4 h in [9] (72 × 3 h (three passages), control 18.6 h). The Tg in assay [9] (72 × 4 h) turned out to be 28.9 h; in assay [9] (72 h), 25.3 h. Further, the “prolongation of generation time” value in assay [8] (10 nM, three passages) worked out at 4.16 fold. In [8] (drug withdrawn, two passages), the “generation time after drug withdrawn” value was “returned to control levels”. Besides, the “contact inhibition as the cells approached confluency” value in [9] is on record as “showed evidence of contact inhibition”. The “slowing of the growth rate” value in [9] (three passages) is on record as 1.8 fold. In addition, in assay [2] (1&100 nM), the “Stimulation of IgG Production” value was determined as 1990%. In addition, the activation at 0.0001 µM in assay [2] (Homo sapiens, Leukocyte, 90 h, 100 pM, read-out: Stimulation of IgG Production) was less than 350%.
